In patent US8802597B2, “Herbicidal pyrimidines” (E I du Pont de Nemours and Company, priority 2003, dated 2014):
Like-named read-outs stand apart in the source and are kept apart here. Values belong to the compound of their own block, whether it stands above or below them.

Key:
[1] = test system: morningglory (Ipomoea spp.); assay: Test A pre/postemergence; assay type: in vivo; settings: Ipomoea, 240 h, read-out: Plant response rating, Morningglory; for pest or weed control at 125 g/ha: 125 g ai/ha; for pest or weed control at 500 g/ha: 500 g ai/ha
In short: (§1)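 Greenhouse herbicide test with preemergence directed soil spray and postemergence foliar spray at the 1- to 2-leaf stage; visual control rating 0–100 versus untreated at ~10 days.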

[2] = test system: redroot pigweed (Amaranthus retroflexus); assay: Test A pre/postemergence; assay type: in vivo; settings: Amaranthus retroflexus, 240 h, read-out: Plant response rating, Pigweed; for pest or weed control at 125 g/ha: 125 g ai/ha; for pest or weed control at 500 g/ha: 500 g ai/ha
In short: as §1

[3] = test system: velvetleaf (Abutilon theophrasti); assay: Test A pre/postemergence; assay type: in vivo; settings: Abutilon theophrasti, 240 h, read-out: Plant response rating, Velvetleaf; for pest or weed control at 125 g/ha: 125 g ai/ha; for pest or weed control at 500 g/ha: 500 g ai/ha
In short: as §1

[4] = test system: crabgrass (Digitaria sanguinalis); assay: Test A pre/postemergence; assay type: in vivo; settings: Digitaria sanguinalis, 240 h, read-out: Plant response rating, Crabgrass; for pest or weed control at 125 g/ha: 125 g ai/ha; for pest or weed control at 500 g/ha: 500 g ai/ha
In short: as §1

[5] = test system: rice (Oryza sativa); assay: Test C flooded paddy test; assay type: in vivo; settings: Flood, scale 0 to 100
Procedure: (§2) At the same time, plants selected from these crop and weed species and also winter barley (Hordeum vulgare), blackgrass (Alopecurus myosuroides), canarygrass (Phalaris minor), chickweed (Stellaria media), downy brome (Bromus tectorum), green foxtail (Setaria viridis), Italian ryegrass (Lolium multiflorum), wheat (Triticum aestivum), wild oat (Avena fatua) and windgrass (Apera spica-venti) were treated with postemergence applications of some of the test chemicals formulated in the same manner. Plants ranged in height from 2 to 18 cm (1- to 4-leaf stage) for postemergence treatments. Plant species in the flooded paddy test consisted of rice (Oryza sativa), umbrella sedge (Cyperus difformis), duck salad (Heteranthera limosa) and barnyardgrass (Echinochloa crus-galli) grown to the 2-leaf stage for testing. Treated plants and controls were maintained in a greenhouse for 12 to 14 days, after which time all species were compared to controls and visually evaluated. Plant response ratings, summarized in Table C, are based on a scale of 0 to 100 where 0 is no effect and 100 is complete control. A dash (-) response means no test result.

[6] = test system: barnyardgrass (Echinochloa crus-galli); assay: Test C flooded paddy test; assay type: in vivo; settings: Flood
Procedure: as §2

[7] = test system: duck salad (Heteranthera limosa); assay: Test C flooded paddy test; assay type: in vivo; settings: Flood, scale 0 to 100
Procedure: as §2

[8] = post-emergence, Postemergence, 0 to 100 scale (0 no effect, 100 complete control)
[9] = pre-emergence, Preemergence, 0 to 100 scale where 0 is no effect and 100 is complete control, approximately ten days

SMILES: Nc1nc(C2CC2)nc(CO)c1Br [Compound 21]
melting point: 182 to 185 °C

SMILES: Nc1nc(C2CC2)nc(C(=O)O)c1Br [Compound 8]
melting point: 160 to 162 °C

SMILES: CCCOC(=O)c1nc(C2CC2)nc(N)c1Br [Compound 15]
Plant response rating, Rice ([5]; 62 g ai/ha): 0
Plant response rating, Rice ([5]; 125 g ai/ha): 0
Plant response rating, Rice ([5]; 250 g ai/ha): 20
Plant response rating, Rice ([5]; 500 g ai/ha): 50
Plant response rating, Barnyardgrass ([6]; 62 g ai/ha, scale 0 to 100): 0
Plant response rating, Barnyardgrass ([6]; 125 g ai/ha, scale 0 to 100): 0
Plant response rating, Barnyardgrass ([6]; 250 g ai/ha, scale 0 to 100): 25
Plant response rating, Barnyardgrass ([6]; 500 g ai/ha, scale 0 to 100 (0 no effect, 100 complete control)): 75
Plant response rating, Ducksalad ([7]; 62 g ai/ha): 45
Plant response rating, Ducksalad ([7]; 125 g ai/ha): 45
Plant response rating, Ducksalad ([7]; 250 g ai/ha): 50
Plant response rating, Ducksalad ([7]; 500 g ai/ha): 85

Now from value to compound, other results behind:

melting point: 215 to 218 °C
SMILES: COC(=O)c1nc(-c2ccc(Cl)cc2)nc(N)c1Cl [Compound 58, methyl 6-amino-5-chloro-2-(4-chlorophenyl)-4-pyrimidinecarboxylate]
pest or weed control at 125 g/ha [1, 8]: 55%
pest or weed control at 500 g/ha [1, 8]: 80%
pest or weed control at 125 g/ha [1, 9]: 10%
pest or weed control at 500 g/ha [1, 9]: 25%
pest or weed control at 125 g/ha [2, 8]: 70%
pest or weed control at 500 g/ha [2, 8]: 80%
pest or weed control at 125 g/ha [2, 9]: 0%
pest or weed control at 500 g/ha [2, 9]: 60%
pest or weed control at 125 g/ha [3, 8]: 70%
pest or weed control at 500 g/ha [3, 8]: 85%
pest or weed control at 125 g/ha [3, 9]: 0%
pest or weed control at 500 g/ha [3, 9]: 40%
pest or weed control at 125 g/ha [4, 8]: 5%
pest or weed control at 500 g/ha [4, 8]: 10%
pest or weed control at 125 g/ha [4, 9]: 0%
pest or weed control at 500 g/ha [4, 9]: 0%

melting point: 69 to 70 °C
SMILES: CCOC(=O)c1nc(C(C)(C)C)nc(N)c1Br [Compound 36]
